# Test results: US12281225B2, “Process for preparing stable polymers containing vinylimidazole” (BASF SE, priority 2018, dated 2025)
# Columns and labels:
# [1] = Physical stability; visual assessment (color, turbidity, phase separation); type: physicochemical; parameters: key: ++: no discernible change with respect to color, turbidity or phase separation; +: marginal change in color number, somewhat increased Tyndall effect but no turbidity; 0: easily discernible increase in color number and moderate turbidity−no phase separation; −: turbidity and change in color number readily discernible by visual assessment; −−: strong color change with strong turbidity and incipient phase separation
# Description: Physical stability; visual assessment according to:
# ++=no discernible change with respect to color, turbidity or phase separation; +=marginal change in color number, somewhat increased Tyndall effect but no turbidity; 0=easily discernible increase in color number and moderate turbidity−no phase separation; − turbidity and change in color number readily discernible by visual assessment; −− strong color change with strong turbidity and incipient phase separation.
# Before storage, all batches could be rated ++ (no turbidity or phase separation; no influence of the biocide on the color number of the product).
# [2] = Iodine color number according to DIN 6162:2014-09; type: physicochemical
# [3] = Analysis of active substance: preservative concentration before and after storage in VI-containing polymer solution; type: physicochemical; details: for active-substance concentration, 0 d, RT: before storage; for active-substance concentration, 14 d, 40° C.: storage 14 d at 40° C.; for active-substance concentration, 28 d, 40° C.: storage 28 d at 40° C.; for active-substance concentration, 60 d 40° C.: storage 60 d at 40° C.
# Experimental: Stability of Preservatives in VI-Containing Polymers:
# The following stabilizers for VI-containing polymers (here: aqueous solution of a copolymer of vinylpyrrolidone and vinylimidazole) were tested.
# MIT, BIT, CMIT, OIT, DCOIT and iodopropynyl butyl carbamate were determined by RP chromatography with UV detection after dilution of the sample to be tested. An RP18 column was used for this purpose, with an eluent composed of an acid-methanol mixture under isocratic conditions.
# [4] = tested on: Yeast: Candida albicans, Candida valida, Rhodotorula rura, Saccharomyces cerevisiae; experiment: Preservation test with periodic inoculation, yeast assessment; type: cell-based; details: for 60 d 40° C., yeast assess., 4th inoculation: sample stored 60 d at 40° C.; for Start sample measurement, yeast assess., 4th inoculation: freshly formulated
# Experimental: Microbiological results at the start (freshly formulated, i.e. 4-week test series is started immediately) and after 60 days of storage at 40° C. (i.e. the 4-week microbial testing is started with the sample stored at 40° C. for 60 days)
# The test described below is carried out in order to ascertain the preserving effect of chemical preservatives in aqueous products and systems, the principle of the described method reflecting the efficacy of chemical preservatives with respect to pot-maintenance of aqueous products/systems under conditions corresponding to the use of laundry products/consumer products by the consumer. For this purpose, the preservatives to be tested are added in those concentrations which correspond to from the literature or to the manufacturer data from the suppliers (e.g. Thor, Speyer). In said test, our orientation was toward the upper range, which, with the exception of VI-containing polymers, had always led to excellent results in the case of aqueous polymers for laundry.
# A constant microorganism load is achieved by periodic inoculation of the test batches. Before the swabs of each batch made respectively immediately in parallel with the inoculation. The assessment is made on the basis of the microbial growth of the streaks.
# When carrying out said tests, 25 g of the polymer to be tested are weighed in each case into a vessel with a screw cap. The preservatives to be tested are each added in separate batches according to the specified use concentrations. An unpreserved product sample was used in each case for the growth control. Two days after the addition of the preservative, the samples are infected with 0.5 ml of inoculum (2% w/w). The titer of this inoculant solution is 10^9 organisms per ml. The following microorganisms are the test organisms for the preservation test:
# • Escherichia coli • Staphylococcus aureus • Pseudomonas aeruginosa • Pseudomonas putida • Burkholderia cepacia • Alcaligenes faecalis Yeast: • Candida albicans • Candida valida • Rhodotorula rura • Saccharomyces cerevisiae
# The test batches are inoculated four times altogether and once a week and are streaked on an agar plate once a week; the first streaking is done immediately before the new inoculation. Microbial growth on the agar surface is assessed after a three-day incubation at 25° C. As a precaution, negative swabs are additionally observed for a further three days and reassessed. The preserving effect is effected in a semiquantitative method via the growth of the individual streaks in accordance with the assessment from − via + to +++. The preservative result is repeatedly demonstrably robust, i.e. +++− defines the microbial growth.
# When assessing the results, it is assumed that a preservative can be regarded as good if there are batches under the above-described laboratory conditions for a period of four weeks without microbial invasion of the sample, and that, even after the fourth inoculation, no microbial attacks occur growth can be identified. • −−: no growth • −: slight growth, max. 100 colonies • 0: moderate growth, max. 400 colonies • +: uniform growth with individual colonies still easily identifiable • ++: strong growth; too many colonies to be counted, already some extensive growth
# [5] = Polymer P5 (HP56) with stabilizer
compound,measurement,setting,value
"O=c1[nH]sc2ccccc12 [BIT, 1,2-benzisothiazolin-3-one]","Physical stability, 60 d 40° C.*",[1]; Polymer P1 with stabilizer,−
same,"Physical stability, 60 d 40° C.*",[1]; Polymer P2 with stabilizer,−
same,"Physical stability, 60 d 40° C.*",[1]; Polymer P3 with stabilizer,−
same,"Physical stability, 60 d 40° C.*",[1]; Polymer P4 with stabilizer,−
same,"Physical stability, 60 d 40° C.*",[1]; [5],−
same,"Physical stability, 60 d 40° C.*",[1]; Polymer P6 with stabilizer,−
same,"Physical stability, 60 d 40° C.*",[1]; Polymer P7 with stabilizer,−
same,"Physical stability, 60 d 40° C.*",[1]; Polymer P8 with stabilizer,−−
same,"Physical stability, 60 d 40° C.*",[1]; Polymer P9 with stabilizer,−
same,"Iodine color number, 60 d 40° C.",[2]; Polymer P1 with stabilizer,6.0
same,"Iodine color number, start",[2]; Polymer P1 with stabilizer,2.6
same,"Iodine color number, 60 d 40° C.",[2]; Polymer P2 with stabilizer,7.1
same,"Iodine color number, start",[2]; Polymer P2 with stabilizer,2.9
same,"Iodine color number, 60 d 40° C.",[2]; Polymer P3 with stabilizer,9.3
same,"Iodine color number, start",[2]; Polymer P3 with stabilizer,3.4
same,"Iodine color number, 60 d 40° C.",[2]; Polymer P4 with stabilizer,9.2
same,"Iodine color number, start",[2]; Polymer P4 with stabilizer,3.4
same,"Iodine color number, 60 d 40° C.",[2]; [5],10.4
same,"Iodine color number, start",[2]; [5],3.6
same,"Iodine color number, 60 d 40° C.",[2]; Polymer P6 with stabilizer,10.0
same,"Iodine color number, start",[2]; Polymer P6 with stabilizer,3.6
same,"Iodine color number, 60 d 40° C.",[2]; Polymer P7 with stabilizer,10.0
same,"Iodine color number, start",[2]; Polymer P7 with stabilizer,3.6
same,"Iodine color number, 60 d 40° C.",[2]; Polymer P8 with stabilizer,10.4
same,"Iodine color number, start",[2]; Polymer P8 with stabilizer,3.4
same,"Iodine color number, 60 d 40° C.",[2]; Polymer P9 with stabilizer,12.8
same,"Iodine color number, start",[2]; Polymer P9 with stabilizer,4.0
same,"active-substance concentration, 0 d, RT",[3]; in Polymer P1,150 ppm
same,"active-substance concentration, 14 d, 40° C.",[3]; in Polymer P1,101 ppm
same,"active-substance concentration, 28 d, 40° C.",[3]; in Polymer P1,85 ppm
same,"active-substance concentration, 60 d 40° C.",[3]; in Polymer P1,69 ppm
same,"active-substance concentration, 0 d, RT",[3]; in Polymer P2,150 ppm
same,"active-substance concentration, 14 d, 40° C.",[3]; in Polymer P2,112 ppm
same,"active-substance concentration, 28 d, 40° C.",[3]; in Polymer P2,93 ppm
same,"active-substance concentration, 60 d 40° C.",[3]; in Polymer P2,80 ppm
same,"active-substance concentration, 0 d, RT",[3]; in Polymer P3,150 ppm
same,"active-substance concentration, 14 d, 40° C.",[3]; in Polymer P3,119 ppm
same,"active-substance concentration, 28 d, 40° C.",[3]; in Polymer P3,99 ppm
same,"active-substance concentration, 60 d 40° C.",[3]; in Polymer P3,80 ppm
same,"active-substance concentration, 0 d, RT",[3]; in Polymer P4,150 ppm
same,"active-substance concentration, 14 d, 40° C.",[3]; in Polymer P4,117 ppm
same,"active-substance concentration, 28 d, 40° C.",[3]; in Polymer P4,93 ppm
same,"active-substance concentration, 60 d 40° C.",[3]; in Polymer P4,82 ppm
same,"active-substance concentration, 0 d, RT",[3]; in Polymer P5 (HP56),150 ppm
same,"active-substance concentration, 14 d, 40° C.",[3]; in Polymer P5 (HP56),101 ppm
same,"active-substance concentration, 28 d, 40° C.",[3]; in Polymer P5 (HP56),85 ppm
same,"active-substance concentration, 60 d 40° C.",[3]; in Polymer P5 (HP56),69 ppm
same,"active-substance concentration, 0 d, RT",[3]; in Polymer P6,150 ppm
same,"active-substance concentration, 14 d, 40° C.",[3]; in Polymer P6,99 ppm
same,"active-substance concentration, 28 d, 40° C.",[3]; in Polymer P6,83 ppm
same,"active-substance concentration, 60 d 40° C.",[3]; in Polymer P6,66 ppm
same,"active-substance concentration, 0 d, RT",[3]; in Polymer P7,150 ppm
same,"active-substance concentration, 14 d, 40° C.",[3]; in Polymer P7,105 ppm
same,"active-substance concentration, 28 d, 40° C.",[3]; in Polymer P7,88 ppm
same,"active-substance concentration, 60 d 40° C.",[3]; in Polymer P7,72 ppm
same,"active-substance concentration, 0 d, RT",[3]; in Polymer P8,150 ppm
same,"active-substance concentration, 14 d, 40° C.",[3]; in Polymer P8,101 ppm
same,"active-substance concentration, 28 d, 40° C.",[3]; in Polymer P8,85 ppm
same,"active-substance concentration, 60 d 40° C.",[3]; in Polymer P8,69 ppm
same,"active-substance concentration, 0 d, RT",[3]; in Polymer P9,150 ppm
same,"active-substance concentration, 14 d, 40° C.",[3]; in Polymer P9,97 ppm
same,"active-substance concentration, 28 d, 40° C.",[3]; in Polymer P9,78 ppm
same,"active-substance concentration, 60 d 40° C.",[3]; in Polymer P9,60 ppm
same,"60 d 40° C., yeast assess., 4th inoculation",[4]; Polymer P1,+
same,"60 d 40° C., yeast assess., 4th inoculation",[4]; Polymer P2,++
same,"Start sample measurement, yeast assess., 4th inoculation",[4]; Polymer P3,"− (slight growth, max. 100 colonies)"
same,"60 d 40° C., yeast assess., 4th inoculation",[4]; Polymer P3,++
same,"Start sample measurement, yeast assess., 4th inoculation",[4]; Polymer P4,"− (slight growth, max. 100 colonies)"
same,"60 d 40° C., yeast assess., 4th inoculation",[4]; Polymer P4,++
same,"Start sample measurement, yeast assess., 4th inoculation",[4]; Polymer P5 (HP56),"− (slight growth, max. 100 colonies)"
same,"60 d 40° C., yeast assess., 4th inoculation",[4]; Polymer P5 (HP56),++
same,"Start sample measurement, yeast assess., 4th inoculation",[4]; Polymer P6,"− (slight growth, max. 100 colonies)"
same,"60 d 40° C., yeast assess., 4th inoculation",[4]; Polymer P6,++
same,"Start sample measurement, yeast assess., 4th inoculation",[4]; Polymer P7,"− (slight growth, max. 100 colonies)"
same,"60 d 40° C., yeast assess., 4th inoculation",[4]; Polymer P7,++
same,"60 d 40° C., yeast assess., 4th inoculation",[4]; Polymer P8,+
same,"Start sample measurement, yeast assess., 4th inoculation",[4]; Polymer P9,"− (slight growth, max. 100 colonies)"
same,"60 d 40° C., yeast assess., 4th inoculation",[4]; Polymer P9,++
